Legend:
[1] = target: 3',5'-cyclic-AMP phosphodiesterase 4D (Homo sapiens, UniProt Q08499); assay type: functional
[2] = target: Histamine H1 receptor (Homo sapiens, UniProt P35367)
[3] = target: T1, Alpha-2C adrenergic receptor (Homo sapiens, UniProt P18825); assay type: functional
T1 sequence (P18825 whole entry): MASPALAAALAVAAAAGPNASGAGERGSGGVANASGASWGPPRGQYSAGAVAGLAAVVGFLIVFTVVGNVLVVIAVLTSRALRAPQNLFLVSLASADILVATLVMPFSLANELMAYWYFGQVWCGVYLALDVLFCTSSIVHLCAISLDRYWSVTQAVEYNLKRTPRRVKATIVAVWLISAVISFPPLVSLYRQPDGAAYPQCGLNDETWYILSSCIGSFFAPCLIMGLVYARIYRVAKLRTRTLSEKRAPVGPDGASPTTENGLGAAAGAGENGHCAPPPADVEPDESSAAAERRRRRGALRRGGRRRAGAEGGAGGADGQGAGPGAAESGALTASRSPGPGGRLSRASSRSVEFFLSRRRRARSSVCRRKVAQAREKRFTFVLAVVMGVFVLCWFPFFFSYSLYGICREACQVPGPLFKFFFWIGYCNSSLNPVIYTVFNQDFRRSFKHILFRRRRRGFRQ

[4] = target: Glutamate receptor ionotropic, NMDA 1 (Rattus norvegicus, UniProt P35439)
[5] = target: T2, Alpha-2B adrenergic receptor (Homo sapiens, UniProt P18089)
T2 sequence (P18089 whole entry): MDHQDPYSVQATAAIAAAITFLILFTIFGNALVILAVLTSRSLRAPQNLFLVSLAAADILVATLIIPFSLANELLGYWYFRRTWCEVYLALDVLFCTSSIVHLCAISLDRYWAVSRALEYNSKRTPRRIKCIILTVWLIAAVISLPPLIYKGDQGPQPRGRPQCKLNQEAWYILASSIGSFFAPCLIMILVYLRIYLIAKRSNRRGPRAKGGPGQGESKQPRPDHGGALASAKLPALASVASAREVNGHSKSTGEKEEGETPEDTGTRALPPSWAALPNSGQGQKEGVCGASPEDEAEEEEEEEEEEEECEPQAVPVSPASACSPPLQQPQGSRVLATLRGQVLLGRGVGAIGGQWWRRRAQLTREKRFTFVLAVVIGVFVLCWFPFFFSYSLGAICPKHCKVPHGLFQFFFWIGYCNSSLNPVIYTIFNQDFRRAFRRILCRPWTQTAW

[6] = target: Gamma-aminobutyric acid receptor subunit alpha-1 (Rattus norvegicus, UniProt P62813)
Chain of Gamma-aminobutyric acid receptor subunit alpha-1 (P62813 whole entry): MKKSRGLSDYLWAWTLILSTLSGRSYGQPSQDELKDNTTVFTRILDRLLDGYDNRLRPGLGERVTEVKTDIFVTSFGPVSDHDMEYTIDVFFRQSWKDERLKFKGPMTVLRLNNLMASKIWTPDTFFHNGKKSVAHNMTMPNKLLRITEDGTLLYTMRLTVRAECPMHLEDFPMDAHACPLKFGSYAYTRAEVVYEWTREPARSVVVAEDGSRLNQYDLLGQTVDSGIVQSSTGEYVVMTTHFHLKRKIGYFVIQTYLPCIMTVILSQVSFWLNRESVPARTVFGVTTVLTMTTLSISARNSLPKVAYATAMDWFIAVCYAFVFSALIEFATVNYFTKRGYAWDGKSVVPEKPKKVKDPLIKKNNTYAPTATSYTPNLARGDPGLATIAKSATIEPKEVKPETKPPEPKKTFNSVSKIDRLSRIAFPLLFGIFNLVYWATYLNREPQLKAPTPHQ

[7] = target: Cannabinoid receptor 1 (Homo sapiens, UniProt P21554); assay type: functional, cell-based
Chain of Cannabinoid receptor 1 (P21554 whole entry): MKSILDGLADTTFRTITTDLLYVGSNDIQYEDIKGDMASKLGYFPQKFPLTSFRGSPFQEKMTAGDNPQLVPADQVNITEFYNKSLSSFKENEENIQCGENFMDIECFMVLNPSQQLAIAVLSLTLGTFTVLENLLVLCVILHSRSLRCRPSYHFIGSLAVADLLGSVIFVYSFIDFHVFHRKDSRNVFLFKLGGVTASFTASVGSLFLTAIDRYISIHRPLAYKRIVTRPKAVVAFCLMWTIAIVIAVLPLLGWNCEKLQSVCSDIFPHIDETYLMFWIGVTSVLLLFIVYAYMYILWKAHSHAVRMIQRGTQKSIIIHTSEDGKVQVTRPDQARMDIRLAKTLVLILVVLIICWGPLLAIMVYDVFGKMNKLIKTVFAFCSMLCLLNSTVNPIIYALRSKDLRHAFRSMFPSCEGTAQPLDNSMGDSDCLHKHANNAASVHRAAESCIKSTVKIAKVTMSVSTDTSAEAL

[8] = target: Vascular endothelial growth factor receptor 2 (Homo sapiens, UniProt P35968); assay type: functional
Chain of Vascular endothelial growth factor receptor 2 (P35968 whole entry): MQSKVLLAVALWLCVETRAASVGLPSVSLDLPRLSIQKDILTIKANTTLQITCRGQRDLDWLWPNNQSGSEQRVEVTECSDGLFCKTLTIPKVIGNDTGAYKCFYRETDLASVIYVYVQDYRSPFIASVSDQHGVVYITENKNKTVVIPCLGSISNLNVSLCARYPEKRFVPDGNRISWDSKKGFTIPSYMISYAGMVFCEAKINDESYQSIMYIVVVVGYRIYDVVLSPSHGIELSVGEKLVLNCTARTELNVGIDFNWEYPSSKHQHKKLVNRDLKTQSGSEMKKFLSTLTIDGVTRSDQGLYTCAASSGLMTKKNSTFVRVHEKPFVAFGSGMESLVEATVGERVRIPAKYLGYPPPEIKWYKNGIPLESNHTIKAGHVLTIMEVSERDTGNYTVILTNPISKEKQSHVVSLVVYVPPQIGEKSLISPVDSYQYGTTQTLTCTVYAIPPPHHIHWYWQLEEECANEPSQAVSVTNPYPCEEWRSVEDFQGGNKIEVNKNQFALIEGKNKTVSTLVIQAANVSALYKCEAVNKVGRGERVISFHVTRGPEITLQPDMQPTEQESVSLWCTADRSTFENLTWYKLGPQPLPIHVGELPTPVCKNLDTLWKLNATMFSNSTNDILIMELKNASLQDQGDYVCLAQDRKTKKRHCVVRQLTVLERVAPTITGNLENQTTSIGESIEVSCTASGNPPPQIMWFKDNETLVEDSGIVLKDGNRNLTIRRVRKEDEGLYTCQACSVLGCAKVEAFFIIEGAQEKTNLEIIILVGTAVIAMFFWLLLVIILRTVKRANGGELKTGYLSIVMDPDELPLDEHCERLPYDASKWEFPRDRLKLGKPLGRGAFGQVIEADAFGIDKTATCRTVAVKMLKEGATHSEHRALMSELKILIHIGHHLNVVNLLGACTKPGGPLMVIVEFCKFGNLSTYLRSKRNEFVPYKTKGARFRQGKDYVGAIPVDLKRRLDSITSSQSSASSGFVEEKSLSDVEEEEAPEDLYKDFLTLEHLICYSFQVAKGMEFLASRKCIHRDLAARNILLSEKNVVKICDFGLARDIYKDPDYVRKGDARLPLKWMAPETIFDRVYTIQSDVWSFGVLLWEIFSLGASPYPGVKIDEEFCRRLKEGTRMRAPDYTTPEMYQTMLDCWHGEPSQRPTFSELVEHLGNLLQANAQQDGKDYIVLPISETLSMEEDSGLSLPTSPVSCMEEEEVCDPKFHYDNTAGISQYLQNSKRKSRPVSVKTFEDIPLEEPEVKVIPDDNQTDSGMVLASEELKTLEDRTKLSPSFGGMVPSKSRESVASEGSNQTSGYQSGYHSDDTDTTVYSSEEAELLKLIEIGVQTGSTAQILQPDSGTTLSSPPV

[9] = target: Sodium-dependent noradrenaline transporter (Homo sapiens, UniProt P23975)
Chain of Sodium-dependent noradrenaline transporter (P23975 whole entry): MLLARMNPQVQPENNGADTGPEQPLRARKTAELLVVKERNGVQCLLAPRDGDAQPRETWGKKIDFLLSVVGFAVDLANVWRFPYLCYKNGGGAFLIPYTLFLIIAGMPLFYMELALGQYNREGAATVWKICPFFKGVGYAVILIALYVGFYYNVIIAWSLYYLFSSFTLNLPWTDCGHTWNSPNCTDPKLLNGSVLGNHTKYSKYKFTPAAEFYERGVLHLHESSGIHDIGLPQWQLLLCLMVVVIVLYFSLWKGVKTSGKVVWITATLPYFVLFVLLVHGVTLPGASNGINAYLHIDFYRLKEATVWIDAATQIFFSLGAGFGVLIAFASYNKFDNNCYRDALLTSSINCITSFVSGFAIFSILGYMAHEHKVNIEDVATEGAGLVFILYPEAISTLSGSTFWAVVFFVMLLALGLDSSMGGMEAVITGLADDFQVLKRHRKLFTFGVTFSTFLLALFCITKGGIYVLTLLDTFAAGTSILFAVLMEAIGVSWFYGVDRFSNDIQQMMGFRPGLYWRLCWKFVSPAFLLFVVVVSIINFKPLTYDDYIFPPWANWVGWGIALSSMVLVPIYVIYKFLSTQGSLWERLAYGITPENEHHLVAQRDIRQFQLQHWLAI

[10] = target: T3, Adenosine receptor A3 (Homo sapiens, UniProt P0DMS8)
T3 sequence (P0DMS8 whole entry): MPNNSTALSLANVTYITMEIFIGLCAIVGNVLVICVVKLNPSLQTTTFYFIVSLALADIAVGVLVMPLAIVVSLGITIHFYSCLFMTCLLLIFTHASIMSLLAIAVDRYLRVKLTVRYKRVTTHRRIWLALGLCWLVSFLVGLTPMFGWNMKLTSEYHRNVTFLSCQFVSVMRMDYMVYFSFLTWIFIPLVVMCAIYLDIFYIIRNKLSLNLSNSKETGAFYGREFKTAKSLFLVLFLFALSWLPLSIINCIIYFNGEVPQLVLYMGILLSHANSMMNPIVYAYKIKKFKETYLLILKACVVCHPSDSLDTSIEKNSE
Also: assay procedure not described here.

Chain of Histamine H1 receptor (P35367 whole entry): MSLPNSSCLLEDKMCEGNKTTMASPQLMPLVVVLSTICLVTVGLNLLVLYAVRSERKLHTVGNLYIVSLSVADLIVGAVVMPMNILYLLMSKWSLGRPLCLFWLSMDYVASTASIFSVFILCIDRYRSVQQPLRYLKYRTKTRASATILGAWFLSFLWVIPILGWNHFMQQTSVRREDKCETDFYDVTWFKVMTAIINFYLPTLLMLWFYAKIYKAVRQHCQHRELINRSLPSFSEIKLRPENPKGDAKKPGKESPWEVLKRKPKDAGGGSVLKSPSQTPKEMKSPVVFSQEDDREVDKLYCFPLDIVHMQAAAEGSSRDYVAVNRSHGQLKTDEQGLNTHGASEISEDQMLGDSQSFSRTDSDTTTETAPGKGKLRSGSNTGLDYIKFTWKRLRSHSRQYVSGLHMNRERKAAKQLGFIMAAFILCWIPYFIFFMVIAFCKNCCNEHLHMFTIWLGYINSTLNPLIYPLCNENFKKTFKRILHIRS
Chain of 3',5'-cyclic-AMP phosphodiesterase 4D (Q08499 whole entry): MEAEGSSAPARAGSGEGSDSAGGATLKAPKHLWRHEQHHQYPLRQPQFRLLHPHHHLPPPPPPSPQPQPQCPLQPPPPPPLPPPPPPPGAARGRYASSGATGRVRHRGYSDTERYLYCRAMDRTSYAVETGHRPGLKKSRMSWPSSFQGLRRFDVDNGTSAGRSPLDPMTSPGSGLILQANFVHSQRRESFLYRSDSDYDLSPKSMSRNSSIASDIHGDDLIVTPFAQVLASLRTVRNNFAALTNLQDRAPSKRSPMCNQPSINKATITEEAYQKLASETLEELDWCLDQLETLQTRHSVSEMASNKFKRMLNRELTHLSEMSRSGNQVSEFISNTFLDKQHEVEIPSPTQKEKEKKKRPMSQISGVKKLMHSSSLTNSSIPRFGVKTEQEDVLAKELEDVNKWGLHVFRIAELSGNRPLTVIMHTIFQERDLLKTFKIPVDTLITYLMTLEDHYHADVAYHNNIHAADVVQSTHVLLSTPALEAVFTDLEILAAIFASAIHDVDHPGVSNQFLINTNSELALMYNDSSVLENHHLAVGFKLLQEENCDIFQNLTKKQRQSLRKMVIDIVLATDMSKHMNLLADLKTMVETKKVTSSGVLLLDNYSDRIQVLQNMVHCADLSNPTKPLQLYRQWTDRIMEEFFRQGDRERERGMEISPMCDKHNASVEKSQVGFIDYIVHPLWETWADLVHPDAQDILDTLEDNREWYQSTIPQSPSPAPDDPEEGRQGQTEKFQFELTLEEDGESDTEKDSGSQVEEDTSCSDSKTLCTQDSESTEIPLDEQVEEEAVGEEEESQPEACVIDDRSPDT

Row | Compound | AC50 [1] [µM] | AC50 [2] [µM] | AC50 [3] [µM] | AC50 [4] [µM] | AC50 [5] [µM] | AC50 [6] [µM] | AC50 [7] [µM] | AC50 [8] [µM] | AC50 [9] [µM] | AC50 [10] [µM]
1 | CO/N=C(\C(=O)N[C@@H]1C(=O)N2C(C(=O)OCOC(=O)C(C)(C)C)=C(C)CS[C@H]12)c1csc(N)n1 | > 30 | > 30 | > 30 | > 30 | > 30 | > 30 | > 30 | – | – | –
2 | Nc1ccc(C(=O)O)cc1 [AMINOBENZOIC ACID] | – | – | – | – | – | – | – | > 30 | – | –
3 | NS(=O)(=O)c1cc(-c2nnn[nH]2)c(NCc2cccs2)cc1Cl [AZOSEMIDE] | 7.8 | > 30 | > 30 | > 30 | > 30 | > 30 | > 30 | – | > 30 | > 30
4 | O=C(Cn1ccnc1[N+](=O)[O-])NCc1ccccc1 [BENZNIDAZOLE] | > 30 | > 30 | > 30 | > 30 | > 30 | > 30 | > 30 | – | > 30 | > 30
5 | C[N+](C)(C)CC(=O)O [BETAINE] | > 30 | > 30 | > 30 | > 30 | > 30 | > 30 | > 30 | – | > 30 | > 30
6 | CCCC(=O)N1CCCN(c2nc(N)c3cc(OC)c(OC)cc3n2)CC1 [BUNAZOSIN] | > 30 | > 30 | 0.55 | > 30 | 1.7 | > 30 | > 30 | – | > 30 | > 30
7 | CCCCN(CCCC)CCCOC(=O)c1ccc(N)cc1 [BUTACAINE] | – | – | – | – | – | – | – | > 30 | – | –
8 | C[N+](C)(C)CCOC(N)=O [CARBAMOYLCHOLINE] | > 30 | – | > 10 | > 10 | – | > 10 | > 30 | – | > 10 | > 10
9 | N[C@@H](CSCC(=O)O)C(=O)O [CARBOCYSTEINE] | > 10 | > 30 | > 30 | > 30 | > 30 | > 30 | > 30 | – | > 30 | > 30
10 | COCC1=C(C(=O)OC(C)OC(=O)OC(C)C)N2C(=O)[C@@H](NC(=O)/C(=N\OC)c3csc(N)n3)[C@H]2SC1 (some centres undefined) [CEFPODOXIME PROXETIL] | 29 | > 30 | > 30 | > 30 | > 30 | > 30 | > 30 | – | – | –
11 | CC(C)(N)Cc1ccc(Cl)cc1 [CHLORPHENTERMINE] | > 30 | 14 | > 10 | > 10 | > 10 | > 10 | > 30 | – | 13.7 | > 30
12 | NS(=O)(=O)c1cc2c(cc1Cl)NC(CC1CCCC1)NS2(=O)=O (centres undefined) [CYCLOPENTHIAZIDE] | > 30 | > 30 | > 30 | > 30 | 17 | > 30 | > 30 | – | – | –
13 | CN(C)[C@@H]1C(O)=C(C(N)=O)C(=O)[C@@]2(O)C(O)=C3C(=O)c4c(O)ccc(Cl)c4[C@@H](O)[C@H]3C[C@@H]12 [DEMECLOCYCLINE] | > 30 | > 10 | > 10 | > 10 | > 10 | > 10 | – | – | > 10 | > 10
14 | NS(=O)(=O)c1cc(Cl)c(Cl)c(S(N)(=O)=O)c1 [DICHLORPHENAMIDE] | > 30 | > 10 | > 10 | > 10 | > 10 | > 10 | > 30 | – | > 10 | > 10
15 | C=C1C[C@@H]2[C@H](CC[C@]3(C)C(=O)CC[C@@H]23)[C@@]2(C)C=CC(=O)C=C12 [EXEMESTANE] | > 30 | > 10 | > 10 | > 10 | > 10 | > 10 | > 30 | – | > 30 | > 30
16 | O=C1NCC2(CCN(CCc3ccccc3)CC2)O1 [FENSPIRIDE] | – | – | – | – | – | – | – | > 30 | – | –

Row | Compound | AC50 [1] [µM] | AC50 [2] [µM] | AC50 [3] [µM] | AC50 [4] [µM] | AC50 [5] [µM] | AC50 [6] [µM] | AC50 [7] [µM] | AC50 [8] [µM] | AC50 [9] [µM] | AC50 [10] [µM]
17 | CC(C(O)c1ccc(O)cc1)N1CCC(Cc2ccccc2)CC1 (centres undefined) [IFENPRODIL] | > 30 | 1 | 0.89 | – | 0.44 | > 30 | > 30 | – | 2.5 | > 30
18 | CC(=O)N(CC(O)CO)c1c(I)c(C(=O)NCC(O)CO)c(I)c(C(=O)NCC(O)CO)c1I (centres undefined) [IOHEXOL] | > 30 | > 10 | > 10 | > 10 | > 10 | > 10 | > 30 | – | > 30 | > 30
19 | CCC(Cc1c(I)cc(I)c(N)c1I)C(=O)O (centres undefined) [IOPANOIC ACID] | – | – | – | – | – | – | – | > 30 | – | –
20 | CN(CCCN1c2ccccc2CCc2ccccc21)CC(=O)c1ccc(Cl)cc1 [LOFEPRAMINE] | 28 | 0.65 | 17 | 25 | 4 | > 30 | > 30 | – | 0.022 | 18
21 | CC(=O)O[C@]1(C(C)=O)CC[C@H]2[C@@H]3C[C@H](C)C4=CC(=O)CC[C@]4(C)[C@H]3CC[C@@]21C [MEDROXYPROGESTERONE ACETATE] | – | – | – | – | – | – | – | – | > 30 | > 30
22 | CCC1(c2cccc(O)c2)CCCCN(C)C1 (centres undefined) [MEPTAZINOL] | – | – | – | – | – | – | – | > 30 | – | –
23 | CN(C/C=C/c1ccccc1)Cc1cccc2ccccc12 [NAFTIFINE] | > 30 | > 10 | 4.8 | > 10 | > 10 | > 10 | > 30 | – | 11.1 | > 30
24 | CC(C)NCC1CCc2cc(CO)c([N+](=O)[O-])cc2N1 (centres undefined) [OXAMNIQUINE] | > 30 | > 10 | > 10 | > 10 | > 10 | > 10 | > 30 | – | > 30 | > 10
25 | Nc1ccc(/N=N/c2ccccc2)c(N)n1 [PHENAZOPYRIDINE] | 14 | 4.5 | 3.7 | > 30 | 3.2 | > 30 | > 30 | – | – | –
26 | CN(C)CCCN1c2ccccc2Sc2ccccc21 [PROMAZINE] | > 10 | – | 0.82 | > 10 | – | > 10 | > 30 | – | – | > 30
27 | O=C(O)CCn1c2c(c3ccccc31)C[C@H](NS(=O)(=O)c1ccc(F)cc1)CC2 [RAMATROBAN] | > 30 | > 10 | > 10 | > 10 | > 10 | > 10 | – | – | > 30 | > 30
28 | O=P(O)(O)C(O)(Cc1cccnc1)P(=O)(O)O [RISEDRONIC ACID] | > 30 | – | > 30 | > 30 | – | > 30 | > 30 | – | > 30 | > 30
29 | O=C1CCC(N2C(=O)c3ccccc3C2=O)C(=O)N1 (centres undefined) [THALIDOMIDE] | > 30 | – | > 10 | > 10 | – | > 10 | > 30 | > 30 | > 10 | > 30
30 | CCC1C(C)=NN=C(c2ccc(OC)c(OC)c2)c2cc(OC)c(OC)cc21 (centres undefined) [TOFISOPAM] | – | – | – | – | – | – | – | > 30 | – | –
31 | CC(=O)N[C@H]1[C@H]([C@H](O)[C@H](O)CO)OC(C(=O)O)=C[C@@H]1N=C(N)N [ZANAMIVIR] | > 30 | > 30 | > 30 | > 10 | > 30 | > 10 | – | – | > 30 | > 30
